pIC50: −log10 of the molar value.
Key:
[1] = tested on: NCI-H358 cells (KRAS G12C mutant cell line); experiment: Inhibition of NCI-H358 cell proliferation (CellTiter-Glo, 72 h); type: cell-based, human; conditions: Homo sapiens
Summary of the method: (§1)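 Cells were seeded overnight at 37 °C, 5% CO2, then exposed to serially diluted compound (DMSO/medium) alongside a solvent control for 72 h. Viability was read by CellTiter-Glo luminescence, and IC50 was derived by nonlinear regression of inhibition rate against concentration.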

[2] = Plasma protein binding rate, dog plasma; type: in vitro ADME; conditions: 37° C.
Procedure: (§2) The embodiment compound was prepared into a 1 mM solution A with DMSO.
(§3) Solution A was added to the plasma solution and prepared into a 5 μM solution B.
(§4) • 1) 200 μL of solution B was added into the membrane. • 2) 350 μL of PBS was added to the outside of the membrane. • 3) Incubating in a 37° C. water bath for 6 hours. • 4) The samples were processed for dilution and detected by mass spectrometry.
(§5) • Instrument: Shimadzu LC-20 AD; • Chromatographic column: phenomenex Gemiu® C18 (50*4.6 mm, 5 μM particle size); • Mobile phase: A: Acetonitrile, B: 0.1% formic acid solution 0-0.5 min: 5% A→90% A, 2.0-2.1 min: 90% A→5% A; flow rate: 0.8 mL/min; running time: 5.0 min; injection volume: 5 μL.
(§6) • Instrument: API4000 Liquid Chromatography-Mass Spectrometry, AB, USA; • the ion source was electrospray ionization source (ESI); • the temperature of dry gas (N2) was 500° C.; • electrospray voltage was 5500V; • the detection method was positive ion detection; • the scanning mode was selective response monitoring (MRM); the scanning time was 0.1 s.

[3] = tested on: Mia PaCa-2 cells (KRAS G12C mutant cell line); experiment: Inhibition of Mia PaCa-2 cell proliferation (CellTiter-Glo, 72 h); type: cell-based, human; conditions: Homo sapiens
Summary of the method: as §1

[4] = Plasma protein binding rate, human plasma; type: in vitro ADME; conditions: 37° C.
Procedure: as §2, §3, §4, §5, §6

[5] = tested on: phosphorylated ERK in KRAS G12C mutant cells Mia PaCa-2; experiment: Inhibition of phosphorylated ERK level in Mia PaCa-2 cells (LANCE Ultra); type: cell-based; conditions: Homo sapiens, 2 hours, read-out: Mia PaCa-2 pERK IC50
Text: As a preferred embodiment of the present disclosure, the method for detecting the inhibitory activity of phosphorylated ERK level is as follows: through cell culture, adding different concentrations of compound solutions to the cultured cells, continuing the culture for a period of time, lysing the cells, followed by centrifugation and […]; • further, the method of cell culture is: adjusting the cells to a suitable cell concentration with a complete medium, preferably the cell concentration is 1×10^6/mL, and spreading the cell suspension on a well plate for culture.
When Mia PaCa-2 cells were cultured to the appropriate fusion level, Mia PaCa-2 cells were collected, and the cell density was adjusted to 1×10^6/mL using complete culture medium, the cell suspension was spread on a 96-well plate, 50 μL per well, and placed adherent to the wall in a 37° C., 5% CO2 incubator overnight, compound solutions with different concentrations were prepared using DMSO and complete culture medium, a solvent control was set, the compound solution was added to a 96-well plate, 25 μL per well, and placed in a 37° C., 5% CO2 incubator for 2 hours of continuous culture, the supernatant was discarded from the cell culture plate, 50 μL of lysis solution was added to each well, and lysing was performed for 30 minutes by shaking at room temperature, then the mixture was centrifuged at 1000 rpm for 1 minute, 15 μL of supernatant was transferred to 384 well plate, 5 μL of detection mixture (Eu-labeled anti-ERK1/2 (T202-Y204) antibody with final concentration of 0.5 nM and ULight labeled anti-ERK1/2 antibody with final concentration of 5 nM) was added to each well, centrifuged at 1000 rpm for 1 minute and mixed uniformly, the reaction was carried out overnight at room temperature, the plate was read with BioTek Synergy H1, and the signal values was detected at 620 nm and 665 nm emission wavelengths by time-resolved fluorescence program.
The ratio of the signal values at 665 nm and 620 nm emission wavelength were calculated, and the ratio was used to calculate the inhibition rate, the concentration and the inhibition rate were fitted to a nonlinear regression curve using Graphpad Prism software, then the IC50 value was obtained.

[6] = Plasma protein binding rate, rat plasma; type: in vitro ADME; conditions: 37° C.
Procedure: as §2, §3, §4, §5, §6

SMILES	pIC50 [1]	fraction unbound at 6 h, 5 μM [2]	pIC50 [3]	fraction unbound at 6 h, 5 μM [4]	pIC50 [5]	fraction unbound at 6 h, 5 μM [6]
C=CC(=O)N1C[C@H](C)N(c2nc(=O)n(-c3c(SC)ccnc3C(C)C)c3nc(-c4c(O)cccc4F)c(F)cc23)C[C@H]1C (single isomer, unassigned) [Embodiment 114-1]	7.46	0.174	7.54	0.02	7.42	0.095
C=CC(=O)N1C[C@H](C)N(c2nc(=O)n(-c3c(SC)ccnc3C(C)C)c3nc(-c4c(O)cccc4F)c(Cl)cc23)C[C@H]1C (single isomer, unassigned) [Embodiment 166-1]	7.77	0.075	7.96	0.032	7.70	0.046
C=CC(=O)N1C[C@H](C)N(c2nc(=O)n(-c3c(SC)ccnc3C(C)C)c3nc(-c4c(N)ccc(Cl)c4F)c(Cl)cc23)C[C@H]1C (single isomer, unassigned) [Embodiment 165-1]	8.18	0.013	8.48	0.003	8.38	0.021

Reference: patent US12497396B2, “Nitrogen-containing heterocyclic derivatives, method therefor and application therefor as inhibitors of KRAS G12C for the treatment of cancers” (SHANGHAI HANSOH BIOMEDICAL CO., LTD., priority 2019, dated 2025)
